In PubChem BioAssay AID248 (DTP/NCI, 2004):
Several values for one entry are separate records, joined by “and”; a condition that tells them apart may be missing. Equal entries are not always repeated. Toxic doses and inconclusive results are not listed. Cut-off read from the data, not from the text of the source: active = T/C of 150% or more; inactive = T/C below 125%.

System: L1210 leukemia ip in BDF1 mice, survival T/C
Assay: NCI In Vivo Anticancer Drug Screen. Data for tumor model L1210 Leukemia (intraperitoneal) in B6D2F1 (BDF1) mice
Conditions: endpoint: mean survival time, higher = longer survival
Outline: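 Read-out is survival time, reported as the treated-group measurement over the vehicle-control measurement.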

[1] = dose: 25.0 mg/kg/injection, schedule: Q01DX001 (ip), vehicle: saline
[2] = dose: 50.0 mg/kg/injection, schedule: Q01DX009 (ip), vehicle: saline with Tween-80
[3] = dose: 100.0 mg/kg/injection, schedule: Q01DX009 (ip), vehicle: saline with Tween-80
[4] = dose: 200.0 mg/kg/injection, schedule: Q01DX009 (ip), vehicle: saline with Tween-80
[5] = dose: 100.0 mg/kg/injection, schedule: Q01DX009 (ip), vehicle: Klucel (hydroxypropylcellulose) (HPC)
[6] = dose: 200.0 mg/kg/injection, schedule: Q01DX009 (ip), vehicle: Klucel (hydroxypropylcellulose) (HPC)
[7] = dose: 400.0 mg/kg/injection, schedule: Q01DX009 (ip), vehicle: Klucel (hydroxypropylcellulose) (HPC)
[8] = dose: 100.0 mg/kg/injection, schedule: Q04DX003 (ip), vehicle: Klucel (hydroxypropylcellulose) (HPC)
[9] = dose: 200.0 mg/kg/injection, schedule: Q04DX003 (ip), vehicle: Klucel (hydroxypropylcellulose) (HPC)
[10] = dose: 400.0 mg/kg/injection, schedule: Q04DX003 (ip), vehicle: Klucel (hydroxypropylcellulose) (HPC)
[11] = dose: 50.0 mg/kg/injection, schedule: Q04DX003 (ip), vehicle: saline with Tween-80
[12] = dose: 100.0 mg/kg/injection, schedule: Q04DX003 (ip), vehicle: saline with Tween-80
[13] = dose: 100.0 mg/kg/injection, schedule: Q01DX001 (ip), vehicle: saline with Tween-80
[14] = dose: 200.0 mg/kg/injection, schedule: Q01DX001 (ip), vehicle: saline with Tween-80
[15] = dose: 200.0 mg/kg/injection, schedule: Q04DX003 (ip), vehicle: saline with Tween-80
[16] = dose: 100.0 mg/kg/injection, schedule: Q04DX002 (ip), vehicle: Klucel (hydroxypropylcellulose) (HPC)
[17] = dose: 200.0 mg/kg/injection, schedule: Q04DX002 (ip), vehicle: Klucel (hydroxypropylcellulose) (HPC)
[18] = dose: 400.0 mg/kg/injection, schedule: Q04DX002 (ip), vehicle: Klucel (hydroxypropylcellulose) (HPC)
[19] = dose: 400.0 mg/kg/injection, schedule: Q04DX003 (ip), vehicle: saline with Tween-80

Measured: T/C

CC(=O)CC(=O)CF.CC(=O)CC(=O)CF.[Cu]
inactive: dose: 12.0 mg/kg/injection, schedule: Q01DX001 (ip), vehicle: saline 90 % of control | [1] 107 % of control

CC/C(C)=N\O
inactive: dose: 50.0 mg/kg/injection, schedule: Q01DX001 (ip), vehicle: saline 112 % of control | dose: 100.0 mg/kg/injection, schedule: Q01DX001 (ip), vehicle: saline 101 % of control | dose: 200.0 mg/kg/injection, schedule: Q01DX001 (ip), vehicle: saline 93 % of control | dose: 400.0 mg/kg/injection, schedule: Q01DX001 (ip), vehicle: saline 95 % of control

CN(C)N=Nc1c(Cl)cc(Cl)cc1Cl
inactive: [2] 107 % of control | [3] 100 % of control | [4] 107 % of control

C/C(=N\NC(=O)CCCCC(=O)N/N=C(\C)c1ccc(C)cc1)c1ccc(C)cc1
inactive: [5] 88 % of control | [6] 90 % of control | [7] 91 % of control

COc1n[n+]([O-])c(Cl)c(C)c1[N+](=O)[O-]
inactive: dose: 100.0 mg/kg/injection, schedule: Q04DX002 (ip), vehicle: saline with Tween-80 105 % of control | dose: 200.0 mg/kg/injection, schedule: Q04DX002 (ip), vehicle: saline with Tween-80 102 % of control | dose: 400.0 mg/kg/injection, schedule: Q04DX002 (ip), vehicle: saline with Tween-80 96 % of control

C=CC1(C)CCC2C(=CCC3C2(C)CC(O)C(O)C3(C)COC2OC(CO)C(O)C(O)C2O)C1 (configuration not stated)
inactive: dose: 75.0 mg/kg/injection, schedule: Q01DX001 (ip), vehicle: saline 96 % of control

OCC1(CO)CCC=CO1
inactive: dose: 50.0 mg/kg/injection, schedule: Q01DX001 (ip), vehicle: carboxymethylcellulose (CMC) 113 % of control | dose: 100.0 mg/kg/injection, schedule: Q01DX001 (ip), vehicle: carboxymethylcellulose (CMC) 100 % of control | dose: 200.0 mg/kg/injection, schedule: Q01DX001 (ip), vehicle: carboxymethylcellulose (CMC) 100 % of control | dose: 400.0 mg/kg/injection, schedule: Q01DX001 (ip), vehicle: carboxymethylcellulose (CMC) 97 % of control

COC(=O)c1cc(NC(=O)CC(=O)c2cccc(N)c2)cc(C(=O)OC)c1
inactive: [8] 104 % of control | [9] 96 % of control | [10] 94 % of control

CCCCCC/C=C1/CCC/C1=N\NC(=O)c1ccc[n+](C)c1
inactive: dose: 25.0 mg/kg/injection, schedule: Q04DX003 (ip), vehicle: saline 100 % of control | dose: 50.0 mg/kg/injection, schedule: Q04DX003 (ip), vehicle: saline 101 % of control | dose: 100.0 mg/kg/injection, schedule: Q04DX003 (ip), vehicle: saline 100 % of control

CCOC1=NC(C)(C)CC(C)O1 (configuration not stated)
inactive: dose: 25.0 mg/kg/injection, schedule: Q04DX003 (ip), vehicle: saline with Tween-80 95 % of control | [11] 101 % of control | [12] 102 % of control

NC(=O)COc1c(F)c(F)c(F)c(F)c1F
inactive: [3] 101 % of control | [4] 101 % of control | dose: 400.0 mg/kg/injection, schedule: Q01DX009 (ip), vehicle: saline with Tween-80 97 % of control

C/C(=N\O)C(O)c1ccccc1 (configuration not stated)
inactive: dose: 50.0 mg/kg/injection, schedule: Q01DX001 (ip), vehicle: other 97 % of control | dose: 100.0 mg/kg/injection, schedule: Q01DX001 (ip), vehicle: other 89 % of control | dose: 200.0 mg/kg/injection, schedule: Q01DX001 (ip), vehicle: other 97 % of control | dose: 400.0 mg/kg/injection, schedule: Q01DX001 (ip), vehicle: other 92 % of control

CN(C)c1ccccc1C(=O)N/N=C/c1ccc(F)cc1
inactive: [5] 95 % of control | [8] 99 % of control | [6] 93 % of control | [9] 99 % of control | [7] 96 % of control | [10] 93 % of control

c1ccc(C(Nc2ccnc3nc[nH]c23)c2ccccc2)cc1
inactive: dose: 25.0 mg/kg/injection, schedule: Q01DX001 (ip), vehicle: saline with Tween-80 107 % of control | dose: 50.0 mg/kg/injection, schedule: Q01DX001 (ip), vehicle: saline with Tween-80 102 % of control | [2] 96 % of control | [11] 95 % of control | dose: 75.0 mg/kg/injection, schedule: Q01DX001 (ip), vehicle: saline with Tween-80 101 % of control | [13] 94 % of control | [3] 107 % of control | [12] 91 % of control | [14] 93 % of control | [15] 92 % of control

O=C(O)c1ccnc(C(=O)O)c1
inactive: dose: 100.0 mg/kg/injection, schedule: Q01DX009 (ip), vehicle: saline 89 % of control | dose: 100.0 mg/kg/injection, schedule: Q04DX003 (ip), vehicle: saline sonified 98 % of control | dose: 200.0 mg/kg/injection, schedule: Q01DX009 (ip), vehicle: saline 93 % of control | dose: 200.0 mg/kg/injection, schedule: Q04DX003 (ip), vehicle: saline sonified 93 % of control | dose: 400.0 mg/kg/injection, schedule: Q01DX009 (ip), vehicle: saline 97 % of control | dose: 400.0 mg/kg/injection, schedule: Q04DX003 (ip), vehicle: saline sonified 92 % of control

NC(=Nc1ccccc1)C(N)=Nc1ccccc1
inactive: dose: 100.0 mg/kg/injection, schedule: Q04DX002 (ip), vehicle: gum acacia 107 % of control | dose: 200.0 mg/kg/injection, schedule: Q04DX002 (ip), vehicle: gum acacia 96 % of control | dose: 400.0 mg/kg/injection, schedule: Q04DX002 (ip), vehicle: gum acacia 93 % of control

O=C1c2ccccc2C(=O)N1c1ccccc1O
inactive: [16] 98 % of control | [17] 102 % of control | [18] 106 % of control

Cc1ccc(C)c(S(=O)(=O)OCC2CO2)c1 (configuration not stated)
inactive: [12] 104 % of control | [15] 101 % of control | [19] 101 % of control

CC(C)(COCOCC(C)(C)[N+](=O)[O-])[N+](=O)[O-]
inactive: [12] 100 % of control | [15] 103 % of control | [19] 100 % of control

CO[C@H]1C=CC2=CCN3CCC4=C(CC(=O)OC4)[C@]23C1
inactive: dose: 10.0 mg/kg/injection, schedule: Q01DX001 (ip), vehicle: saline 104 % of control | dose: 20.0 mg/kg/injection, schedule: Q01DX001 (ip), vehicle: saline 96 % of control

Cc1ccc(C(=O)O)cc1[N+](=O)[O-]
inactive: [8] 95 % of control | [9] 92 % of control | [10] 103 % of control

COc1ccc(NC(=O)Nc2ccccc2)cc1
inactive: dose: 50.0 mg/kg/injection, schedule: Q04DX002 (ip), vehicle: Klucel (hydroxypropylcellulose) (HPC) 105 % of control | [16] 98 % of control and 102 % of control | [17] 99 % of control | [18] 91 % of control

COC1CCC2C(C1)C(=O)CC1c3[nH]c4ccccc4c3CCN12 (configuration not stated)
inactive: [13] 100 % of control | [14] 101 % of control | dose: 400.0 mg/kg/injection, schedule: Q01DX001 (ip), vehicle: saline with Tween-80 99 % of control

Cc1cc(C)c(C)c(C(C)O)c1C (configuration not stated)
inactive: [12] 96 % of control | [15] 94 % of control

COC(=O)C1=C(C(=O)OC)[C@H]2O[C@H]1[C@@H]1O[C@@H]12
inactive: dose: 6.25 mg/kg/injection, schedule: Q01DX009 (ip), vehicle: saline 104 % of control | dose: 12.5 mg/kg/injection, schedule: Q01DX001 (ip), vehicle: saline 99 % of control | dose: 12.5 mg/kg/injection, schedule: Q01DX009 (ip), vehicle: saline 100 % of control | [1] 100 % of control

COCC(=O)CC(C)=O
inactive: [5] 98 % of control | [8] 100 % of control | [6] 106 % of control | [9] 95 % of control | [7] 101 % of control | [10] 101 % of control

COc1cc(C=O)c(Oc2cc(C=O)ccc2OC)cc1OC
inactive: [8] 97 % of control | [9] 100 % of control | [10] 103 % of control
